Consider 26 molecules from US20240228535A1 (priority 2022, published 2024).

The target in this assay is SARS2 coronavirus 3CL protease (Severe acute respiratory syndrome coronavirus 2, UniProt P0DTD1). Put plainly: biochemical. Conditions: 5 nM enzyme, 30 min pre-incubation with compound, 15 μM peptide substrate, 4 h at room temperature; read-out: FRET Potency (nM); IC50 values in the SARS2 3CLPro FRET assay.
Take `CNC(=O)C(=O)[C@H](C[C@@H]1C[C@@H](C)NC1=O)NC(=O)c1cc(Cl)ccc1NC(=O)C1CC1C(F)(F)F` (stereo partly drawn) [Example 190, 5-chloro-N-[(1S)-3-(methylamino)-1-[[(3S,5R)-5-methyl-2-oxo-pyrrolidin-3-yl]methyl]-2,3-dioxo-propyl]-2-[[2-(trifluoromethyl)cyclopropane-carbonyl]amino]benzamide]: the IC50 was determined as 3.1 nM.
Regarding `O=C(NC1CC1)C(=O)[C@H](C[C@@H]1CCNC1=O)NC(=O)c1cc(Cl)ccc1NC(=O)C12CC(F)(C1)C2` [Example 30, N-[4-chloro-2-[[(1S)-3-(cyclopropylamino)-2,3-dioxo-1-[[(3S)-2-oxopyrrolidin-3-yl]methyl]propyl]carbamoyl]phenyl]-3-fluoro-bicyclo[1.1.1]pentane-1-carboxamide], the IC50 amounted to 12.9 nM.
On to `C[C@@H]1C[C@@H](C[C@H](NC(=O)c2cc(C(F)(F)F)ccc2NC(=O)c2cccc(C(F)(F)F)c2)C(=O)C(=O)NC2CC2)C(=O)N1` [Example 64, N-[(1S)-3-(cyclopropylamino)-1-[[(3S,5R)-5-methyl-2-oxo-pyrrolidin-3-yl]methyl]-2,3-dioxo-propyl]-5-(trifluoromethyl)-2-[[3-(trifluoromethyl)benzoyl]amino]benzamide], for which the IC50 was 7.3 nM.
With `C[C@@H]1C[C@@H](C[C@H](NC(=O)c2cc(Cl)ccc2NC(=O)c2ccnc(C(F)F)c2)C(=O)C(=O)NC2CC2)C(=O)N1` [Example 92, N-[4-chloro-2-[[(1S)-3-(cyclopropylamino)-1-[[(3S,5R)-5-methyl-2-oxo-pyrrolidin-3-yl]methyl]-2,3-dioxo-propyl]carbamoyl]phenyl]-2-(difluoromethyl)pyridine-4-carboxamide], the IC50 was 9 nM.
In the case of `C[C@@H]1C[C@@H](C[C@H](NC(=O)c2cc(F)c(F)cc2NC(=O)c2ccnc(C(F)(F)F)c2)C(=O)C(=O)NC2CC2)C(=O)N1` [Example 49, N-[2-[[(1S)-3-(cyclopropylamino)-1-[[(3S,5R)-5-methyl-2-oxo-pyrrolidin-3-yl]methyl]-2,3-dioxo-propyl]carbamoyl]-4,5-difluoro-phenyl]-2-(trifluoromethyl)pyridine-4-carboxamide], the IC50 turned out to be 8.8 nM.
On to `CNC(=O)C(=O)[C@H](C[C@@H]1C[C@@H](C)NC1=O)NC(=O)c1cc(C#N)ccc1NC(=O)OC1CC1` [Example 131, cyclopropyl N-[4-cyano-2-[[(1S)-3-(methylamino)-1-[[(3S,5R)-5-methyl-2-oxo-pyrrolidin-3-yl]methyl]-2,3-dioxo-propyl]carbamoyl]phenyl] carbamate], for which the IC50 came to 36.5 nM.
With `CNC(=O)C(=O)[C@H](C[C@@H]1CCNC1=O)NC(=O)c1cc(Cl)ccc1NC(=O)C12CC(F)(C1)C2` [Example 47], the IC50 was 8.8 nM.
With `CNC(=O)C(=O)[C@H](C[C@@H]1C[C@@H](C)NC1=O)NC(=O)c1cc(Cl)ccc1NC(=O)C1CC1(F)F` (single isomer, unassigned) [Example 14] the figure was 46.4 nM; with `CNC(=O)C(=O)[C@H](C[C@@H]1C[C@@H](C)NC1=O)NC(=O)c1cc(Cl)ccc1NC(=O)C(C)c1cscn1` (stereo partly drawn) [Example 195, 5-chloro-N-[(1S)-3-(methylamino)-1-[[(3S,5R)-5-methyl-2-oxo-pyrrolidin-3-yl]methyl]-2,3-dioxo-propyl]-2-(2-thiazol-4-ylpropanoylamino)benzamide], 3.1 nM; with `CNC(=O)C(=O)[C@H](C[C@@H]1C[C@@H](C)NC1=O)NC(=O)c1cc(F)c(Cl)cc1NC(=O)OC1CC1` [Example 155, cyclopropyl N-[5-chloro-4-fluoro-2-[[(1S)-3-(methylamino)-1-[[(3S,5R)-5-methyl-2-oxo-pyrrolidin-3-yl]methyl]-2,3-dioxo-propyl]carbamoyl]phenyl] carbamate], 30.4 nM.
The figure for `C[C@@H]1C[C@@H](C[C@H](NC(=O)c2cc(Cl)ccc2NC(=O)C2CC23CC3)C(=O)C(=O)NC2CC2)C(=O)N1` (stereo partly drawn) [Example 82, N-[4-chloro-2-[[(1S)-3-(cyclopropylamino)-1-[[(3S,5R)-5-methyl-2-oxo-pyrrolidin-3-yl]methyl]-2,3-dioxo-propyl]carbamoyl]phenyl] spiro[2.2]pentane-2-carboxamide] is 10.8 nM.
Take `C[C@@H]1C[C@@H](C[C@H](NC(=O)c2cc(Cl)c(F)cc2NC(=O)c2ccnc(C(F)(F)F)c2)C(=O)C(=O)NC2CC2)C(=O)N1` [Example 87]: the IC50 was 6.6 nM.
On to `C[C@@H]1C[C@@H](C[C@H](NC(=O)c2cc(Cl)ccc2NC(=O)C(C)(C)O)C(=O)C(=O)NC2CC2)C(=O)N1` [Example 165, 5-chloro-N-[(1S)-3-(cyclopropylamino)-1-[[(3S,5R)-5-methyl-2-oxo-pyrrolidin-3-yl]methyl]-2,3-dioxo-propyl]-2-[(2-hydroxy-2-methyl-propanoyl)amino]benzamide], for which the IC50 was 6.3 nM.
With `CNC(=O)C(=O)[C@H](C[C@@H]1C[C@@H](C)NC1=O)NC(=O)c1cc(Cl)cnc1NC(=O)OC1CC1` [Example 140, cyclopropyl N-[5-chloro-3-[[(1S)-3-(methylamino)-1-[[(3S,5R)-5-methyl-2-oxo-pyrrolidin-3-yl]methyl]-2,3-dioxo-propyl]carbamoyl]-2-pyridyl]carbamate], the IC50 is 9.2 nM.
The figure for `C[C@@H]1C[C@@H](C[C@H](NC(=O)c2cc(Cl)ccc2NC(=O)C2CC(F)(F)C2)C(=O)C(=O)NC2CC2)C(=O)N1` [Example 59, 5-chloro-N-[(1S)-3-(cyclopropylamino)-1-[[(3S,5R)-5-methyl-2-oxo-pyrrolidin-3-yl]methyl]-2,3-dioxo-propyl]-2-[(3,3-difluorocyclobutanecarbonyl)amino]benzamide] is 8 nM.
`C[C@@H]1C[C@@H](C[C@H](NC(=O)c2cc(Cl)ccc2NC(=O)C2CC2C(F)(F)F)C(=O)C(=O)NC2CC2)C(=O)N1` (stereo partly drawn) [Example 97, 5-chloro-N-[(1S)-3-(cyclopropylamino)-1-[[(3S,5R)-5-methyl-2-oxo-pyrrolidin-3-yl]methyl]-2,3-dioxo-propyl]-2-[[2-(trifluoromethyl)cyclopropane-carbonyl]amino]benzamide]: the IC50 turned out to be 7.7 nM.
On to `CNC(=O)C(=O)[C@H](C[C@@H]1C[C@@H](C)NC1=O)NC(=O)c1cc(F)ccc1NC(=O)c1ccnc(C(F)(F)F)c1` [Example 207, N-[4-fluoro-2-[[(1S)-3-(methylamino)-1-[[(3S,5R)-5-methyl-2-oxo-pyrrolidin-3-yl]methyl]-2,3-dioxo-propyl]carbamoyl]phenyl]-2-(trifluoromethyl)pyridine-4-carboxamide], for which the IC50 turned out to be 11.4 nM.
For `C[C@@H]1C[C@@H](C[C@H](NC(=O)c2cc(Cl)ccc2NC(=O)CCC(F)(F)F)C(=O)C(=O)NCc2ccccc2)C(=O)N1` [Example 115, N—((S)-4-(benzylamino)-1-((3S,5R)-5-methyl-2-oxopyrrolidin-3-yl)-3,4-dioxobutan-2-yl)-5-chloro-2-(4,4,4-trifluorobutanamido)benzamide], the IC50 was 11.5 nM.
For the molecule `C[C@@H]1C[C@@H](C[C@H](NC(=O)c2cc(Cl)ccc2NC(=O)c2cncc(C(F)(F)F)c2)C(=O)C(=O)NC2CC2)C(=O)N1` [Example 94, N-[4-chloro-2-[[(1S)-3-(cyclopropylamino)-1-[[(3S,5R)-5-methyl-2-oxo-pyrrolidin-3-yl]methyl]-2,3-dioxo-propyl]carbamoyl]phenyl]-5-(trifluoromethyl)pyridine-3-carboxamide], the IC50 came out at 10.6 nM.
The figure for `CNC(=O)C(=O)[C@H](C[C@@H]1CCNC1=O)NC(=O)c1cc(Cl)ccc1NC(=O)C(C)(C)C` [Example 126, 5-chloro-2-(2,2-dimethylpropanoylamino)-N-[(1S)-3-(methylamino)-2,3-dioxo-1-[[(3S)-2-oxopyrrolidin-3-yl]methyl]propyl]benzamide] is 3.8 nM.
The figure for `CC(C(=O)Nc1ccc(Cl)cc1C(=O)N[C@@H](C[C@@H]1C[C@@H](C)NC1=O)C(=O)C(=O)NC1CC1)c1cscn1` (stereo partly drawn) [Example 93, 5-chloro-N-[(1S)-3-(cyclopropylamino)-1-[[(3S,5R)-5-methyl-2-oxo-pyrrolidin-3-yl]methyl]-2,3-dioxo-propyl]-2-(2-thiazol-4-ylpropanoylamino)benzamide] is 12.6 nM; for `O=C(Nc1ccc(Cl)cc1C(=O)N[C@@H](C[C@@H]1CCNC1=O)C(=O)C(=O)NC1CC1)OC1CC1` [Example 146, cyclopropyl N-[4-chloro-2-[[(1S)-3-(cyclopropylamino)-2,3-dioxo-1-[[(3S)-2-oxopyrrolidin-3-yl]methyl]propyl]carbamoyl]phenyl]carbamate] it is 3.9 nM.
Take `CNC(=O)C(=O)[C@H](C[C@@H]1C[C@@H](C)NC1=O)NC(=O)c1cc(Cl)ccc1NC(=O)OC1CC(F)(F)C1` [Example 188, (3,3-difluorocyclobutyl) N-[4-chloro-2-[(1S)-3-(methylamino)-1-[[(3S,5R)-5-methyl-2-oxo-pyrrolidin-3-yl]methyl]-2,3-dioxo-propyl]carbamoyl]phenyl] carbamate]: the IC50 is 7.2 nM.
Consider `CNC(=O)C(=O)[C@H](C[C@@H]1C[C@@H](C)NC1=O)NC(=O)c1cc(Cl)c(F)cc1NC(=O)C1(CC(F)(F)F)CC1` [Example 214, 5-chloro-4-fluoro-N-[(1S)-3-(methylamino)-1-[[(3S,5R)-5-methyl-2-oxo-pyrrolidin-3-yl]methyl]-2,3-dioxo-propyl]-2-[[1-(2,2,2-trifluoroethyl)cyclopropane-carbonyl]amino]benzamide], for which the IC50 was 6.8 nM.
Turning to `CNC(=O)C(=O)[C@H](C[C@@H]1C[C@@H](C)NC1=O)NC(=O)c1cc(Cl)ccc1NC(=O)C1CCC(F)(F)C1` (single isomer, unassigned) [Example 16], the IC50 amounted to 31.6 nM.
Regarding `CNC(=O)C(=O)[C@H](C[C@@H]1C[C@@H](C)NC1=O)NC(=O)c1cc(F)c(F)cc1NC(=O)OC` [Example 120, methyl N-[4,5-difluoro-2-[[(1S)-3-(methylamino)-1-[[(3S,5R)-5-methyl-2-oxo-pyrrolidin-3-yl]methyl]-2,3-dioxo-propyl]carbamoyl]phenyl] carbamate], the IC50 came out at 11.1 nM.
